In US9526742B2, “Use of epigenome-modifying compounds for the treatment of genetic muscular diseases linked to a protein-conformational disorder” (GENETHON, priority 2012, dated 2016):

System: R77C mutated α-sarcoglycan
Experiment: Immunofluorescence marking of α-sarcoglycan at the membrane of non-permeabilized quadri-transfected HER 911 cells
Assay type: cell-based, human
Details: 24 h treatment; for membrane localization of the R77C-mutated α-sarcoglycan protein: HER 911 cells quadri-transfected with α(R77C)-, β-, γ-, δ-sarcoglycan; for membrane addressing of the sarcoglycan complex: quadritransfected HER 911 cells
Experimental: HER-911 (“Human Embryonic Retinoblast”) cells have been inoculated in vials and cultivated up to a 80% confluence in Dulbecco's modified Eagle's+GlutaMAX (Gibco, Invitrogen) medium containing 10% of fetal calf serum, 0.01 mg/ml of gentamicin, and 1% MEM Non Essential Amino Acids (Gibco, Invitrogen). The cells have been maintained in a humidified atmosphere with 5% C02, at 37° C.
The HER-91 cells have been transfected by means of 12 μl of Fugene.6 Transfection Reagent (Roche) for 2 μg of plasmid (0.5 μg of each of the 4 sarcoglycan (SG) constructions for HER-911 cells). The plasmids expressing the SG, pcDNA3.V5-his_hα-SG, pcDNA3.V5-his_hβ-SG, pcDNA3.V5-his_hγ-SG, and pcDNA3.V5-his_hδ1-SG (transcriptional type-1 variant), are plasmids where the expression of the coding sequence of the respective sarcoglycans is under control of the CMV promoter.
After 48 h, the cells have been treated for 24 h with 5 μM of 5-aza-2′-deoxycytidine or 1 μM of SAHA (Suberoylanilide hydroxamnic acid).
The HER-911 cells have been fixed by incubation with 3.7% of formaldehyde for 15 min at room temperature. If necessary, a permeabilization has been performed by using 0.2% Triton X-100 for 20 min. After having been saturated with 20% fetal calf serum for 30 min, the cells have been incubated with primary antibodies at adapted dilutions (in PBS) for 1 h at room temperature. A monoclonal murine antibody specific for α-SG (NCL-A-SARC) is available from Novocastra. The cells have been washed 3 times with PBS and then incubated for 1 h with secondary antibodies diluted by 1/1,000 in PBS. Finally, the cells have been washed in PBS, mounted by using a Vectashield Mounting Medium with DAPI (Vector, H-1200), and then examined with a confocal immunofluorescence microscope (Leica).
HER 911 human cells have been quadri-transfected with plasmids coding β-, γ-, and δ-sarcoglycans and a plasmid coding either non-mutated α-sarcoglycan (FIG. 1A and FIG. 2A), or R77C mutated α-sarcoglycan (FIGS. 1B and 1C; FIGS. 2B and 2C).
An immunomarking has then been performed on the non-permeabilized cells by using an antibody directed against the extracellular portion of the α-sarcoglycan, which enables to visualize the protein only at the cellular membrane level and thus to compare the addressing of the mutated protein with that of the normal protein.

Row | Structure (SMILES) | membrane localization of the R77C-mutated α-sarcoglycan protein (5 μM, FIG. 1C) | membrane addressing of the sarcoglycan complex (5 μM) | membrane localization of the R77C-mutated α-sarcoglycan protein (1 μM, FIG. 2C) | membrane addressing of the sarcoglycan complex (1 μM)
1 | Nc1ncn([C@@H]2O[C@H](CO)[C@@H](O)[C@H]2O)c(=O)n1 [5-azacytidine] | restores the membrane localization of the R77C-mutated protein | enabled to reconstitute the complex at the membrane |  | 
2 | O=C(CCCCCCC(=O)Nc1ccccc1)NO [SAHA, suberoylanilide hydroxamic acid] |  |  | restores the membrane localization of the R77C-mutated protein | enabled to reconstitute the complex at the membrane
